According to patent publication US11351151B2, “Compound having anticancer activity and preparation method and application” (3D Medicines (Beijing) Co., Ltd., priority 2016, dated 2022):

Columns and labels:
Assay in all cases: Cell proliferation assay (Alamar Blue)
Assay type in all cases: cell-based
SNU475 = conditions: Homo sapiens, SNU-475, 144 h; SNU475 liver cancer cell line; 6 days
Method: (§1) 1. Instruments and Materials • Thermo 311 CO2 incubator; Haier biosafety cabinet; Molecular Devices microplate reader; Xiangyi brand L530 desktop low speed centrifuge; Olympus IX51 inverted fluorescence microscope, DMEM, RPMI 1640, MEM, DMEM/F12 1:1 medium, Fetal bovine serum, 0.25% trypsin solution, phosphate buffer (Thermo Fisher Shanghai Co., Ltd.); sigma dimethyl sulfoxide (DMSO), resazurin; 54 commercial tumor cell lines (including 26 liver cancer cell lines). Experimental drugs: compounds 1-12 and active drug Linifanib; chemotherapeutic drug Doxorubicin (HY-15142; Shanghai Qianyuan Biomedical Technology Co., Ltd.).
(§2) 2. Experimental Methods • 2.1 Cultivation of different cell lines • 54 cell lines were cultured in a culture medium containing fetal bovine serum and placed in a 5% CO 2 incubator at 37° C. for incubation. The cells were all grown in an adherent state, and the growth was observed under an inverted microscope, and subculture was performed when the cell confluence rate reached 80%-90%. The proportion and quantity of passage were determined by experimental needs. The ratio of subculture of this cell line was generally 1:2^˜1:3. • 2.2 inhibition effect on the proliferation of different tumor cell lines • Cell test: 54 cell lines in logarithmic growth phase were inoculated in 96-well culture plates at 500^˜1×10^4/well (the optimal seeding density of each cell line was determined in pre-experiment), After incubating at 37° C. for 4 h in a 5% CO2 humidification incubator, added 10 μL of compounds 1-12 or Linifanib to each well, and tested 9 drug concentration gradients for each compound (diluted from the highest concentration of the test by 3.16 times). The solubility of each compound was different at a starting concentration of 30 or 100 μM, respectively. The QC reference compound Doxorubicin was added simultaneously to each cell line test, and the final drug concentrations were 10, 3.16, 1, 0.31, 0.1, 0.03, 0.01, 0.003, and 0.001 μM, respectively. In addition, a positive control group (100% inhibition) and a negative control group (0% inhibition) were set at the same time. The drug group was repeated for 2 wells per concentration, and the positive control group and the negative control group were repeated for 6 wells. After the culture was continued for 6 days in the incubator, AlamarBlue test operation was followed; • AlamarBlue test procedure: Incubated with 10 μL of AlamarBlue reagent per well for 1-4 h, shook for 1-2 min, MD microplate reader EX: 560 nm, EM: 590 nm wavelength to measure fluorescence, recorded the results, calculated the cell inhibition rate of the compound of the invention. Cell inhibition rate (%)=(A0% inhibition−A administration)/(A0% inhibition−A100% inhibition)×100%, and then using the method of nonlinear regression using Graph Pad Prism 5.0 or MATILAB software (usually using four parameters) to graph and obtain a drug dose response curve to obtain an IC50 value of the compound of the present invention acting on a cancer cell line.

MDA-MB-231 = conditions: Homo sapiens, 144 h; MDA-MB-231 tumor cell line; 6 days
Method: as §1, §2

TE-15 = conditions: Homo sapiens, 144 h; TE-15 tumor cell line; 6 days
Method: as §1, §2

SNU354 = conditions: Homo sapiens, SNU-354, 144 h; SNU354 liver cancer cell line; 6 days
Method: as §1, §2

SK-HEP-1 = conditions: Homo sapiens, SK-HEP1, 144 h; SK-HEP-1 liver cancer cell line; 6 days
Method: as §1, §2

SNU423 = conditions: Homo sapiens, SNU-423, 144 h; SNU423 liver cancer cell line; 6 days
Method: as §1, §2

SNU449 = conditions: Homo sapiens, SNU-449, 144 h; SNU449 liver cancer cell line; 6 days
Method: as §1, §2

SNU739 = conditions: SNU-739, 144 h; SNU739 liver cancer cell line; 6 days
Method: as §1, §2

HCCLM3 = conditions: Homo sapiens, 144 h; HCCLM3 tumor cell line; 6 days
Method: as §1, §2

DLD1 = conditions: Homo sapiens, DLD-1, 144 h; DLD1 tumor cell line; 6 days
Method: as §1, §2

Hep3B2.1-7 = conditions: 144 h; Hep3B2.1-7 liver cancer cell line; 6 days
Method: as §1, §2

HuTu80 = conditions: Homo sapiens, 144 h; HuTu80 tumor cell line; 6 days
Method: as §1, §2

NCl-H2170 = conditions: 144 h; NCl-H2170 tumor cell line; 6 days
Method: as §1, §2

KASUMI-1 = conditions: Homo sapiens, 144 h; KASUMI-1 (leukemia cells); 6 days
Method: as §1, §2

SNU182 = conditions: Homo sapiens, SNU-182, 144 h; SNU182 liver cancer cell line; 6 days
Method: as §1, §2

JHH7 = conditions: 144 h; JHH7 liver cancer cell line; 6 days
Method: as §1, §2

TE-6 = conditions: Homo sapiens, 144 h; TE-6 tumor cell line; 6 days
Method: as §1, §2

SW620 = conditions: Homo sapiens, SW-620, 144 h; SW620 tumor cell line; 6 days
Method: as §1, §2

NCl-H716 = conditions: 144 h; NCl-H716 tumor cell line; 6 days
Method: as §1, §2

MFM-223 = conditions: Homo sapiens, 144 h; MFM-223 tumor cell line; 6 days
Method: as §1, §2

JHH5 = conditions: 144 h; JHH5 liver cancer cell line; 6 days
Method: as §1, §2

HEPG2 = conditions: Homo sapiens, 144 h; HEPG2 liver cancer cell line; 6 days
Method: as §1, §2

NCl-H1648 = conditions: 144 h; NCl-H1648 tumor cell line; 6 days
Method: as §1, §2

| SMILES | IC50 (SNU475) [µM] | IC50 (MDA-MB-231) [µM] | IC50 (TE-15) [µM] | IC50 (SNU354) [µM] | IC50 (SK-HEP-1) [µM] | IC50 (SNU423) [µM] | IC50 (SNU449) [µM] | IC50 (SNU739) [µM] | IC50 (HCCLM3) [µM] | IC50 (DLD1) [µM] | IC50 (Hep3B2.1-7) [µM] | IC50 (HuTu80) [µM] | IC50 (NCl-H2170) [µM] | IC50 (KASUMI-1) [µM] | IC50 (SNU182) [µM] | IC50 (JHH7) [µM] | IC50 (TE-6) [µM] | IC50 (SW620) [µM] | IC50 (NCl-H716) [µM] | IC50 (MFM-223) [µM] | further results |
| --- | --- | --- | --- | --- | --- | --- | --- | --- | --- | --- | --- | --- | --- | --- | --- | --- | --- | --- | --- | --- | --- |
| Cc1ccc(F)c(NC(=O)Nc2ccc(-c3cccc4c3c(N)nn4C(=O)C[C@H](N)C(=O)N[C@@H](CCC(=O)O)C(=O)O)cc2)c1 [Compound 1] | 4.85 | 3.95 | 7.59 | 3.91 | 4.59 | 9.03 | 5.21 | 4.56 | 11.4 | 9.86 | 1.59 | 3.17 | 0.97 | 0.051 | 19.9 | 1.81 | 4.29 | 2.79 | 1.82 | 8.89 | IC50 (JHH5): 15.2 µM; IC50 (HEPG2): 0.45 µM; IC50 (NCl-H1648): 6.89 µM |
| Cc1ccc(F)c(NC(=O)Nc2ccc(-c3cccc4c3c(N)nn4C(=O)C[C@H](N)C(=O)N[C@@H](CCC(=O)N[C@@H](CCC(=O)N[C@@H](CCC(=O)N[C@@H](CCC(=O)O)C(=O)O)C(=O)O)C(=O)O)C(=O)O)cc2)c1 [Compound 2] | 6.37 | 5.02 | 8.45 | 7.01 | 9.25 | 14.4 | 8.39 | 6.33 | 15.8 | 14 | 3.43 | 5.62 | 3.46 | 0.12 | 32.1 | 2.84 | 7.03 | 4.67 | 2.84 | 10.3 | IC50 (JHH5): 21.3 µM; IC50 (HEPG2): 0.64 µM; IC50 (NCl-H1648): 8.91 µM |
| Cc1ccc(F)c(NC(=O)Nc2ccc(-c3cccc4c3c(N)nn4C(=O)C[C@H](N)C(=O)N[C@@H](CCC(=O)N[C@@H](CCC(=O)N[C@@H](CCC(=O)N[C@@H](CCC(=O)N[C@@H](CCC(=O)N[C@@H](CCC(=O)N[C@@H](CCC(=O)N[C@@H](CCC(=O)N[C@@H](CCC(=O)O)C(=O)O)C(=O)O)C(=O)O)C(=O)O)C(=O)O)C(=O)O)C(=O)O)C(=O)O)C(=O)O)cc2)c1 [Compound 3] | 9.62 | 8.51 | 12.7 | 16.8 | 15.8 | 26.1 | 14.6 | 8.05 | 25.7 | 20.3 | 5.33 | 7.33 | 7.89 | 0.19 | 54.2 | 5.69 | 11.3 | 10.4 | 6.09 | 21.9 | IC50 (JHH5): 31 µM; IC50 (HEPG2): 1.73 µM; IC50 (NCl-H1648): 13.6 µM |
| Cc1ccc(F)c(NC(=O)Nc2ccc(-c3cccc4c3c(N)nn4C(=O)CCCCCNC(=O)C[C@H](N)C(=O)N[C@@H](CCC(=O)O)C(=O)O)cc2)c1 [Compound 4] | 81.3 | 96.5 | > 100 | 78.8 | 64 | > 100 | > 100 | 73.8 | 82 | > 100 | 69.8 | 38.2 | 84 | 1.71 | > 100 | 45.9 | > 100 | 71.4 | 43.8 | 38 | IC50 (JHH5): > 100 µM; IC50 (HEPG2): 19 µM; IC50 (NCl-H1648): > 100 µM |
| Cc1ccc(F)c(NC(=O)Nc2ccc(-c3cccc4c3c(N)nn4C(=O)CCCCCNC(=O)C[C@H](N)C(=O)N[C@@H](CCC(=O)N[C@@H](CCC(=O)N[C@@H](CCC(=O)N[C@@H](CCC(=O)O)C(=O)O)C(=O)O)C(=O)O)C(=O)O)cc2)c1 [Compound 5] | > 100 | > 100 | > 100 | > 100 | 85.1 | > 100 | > 100 | > 100 | > 100 | > 100 | 76.5 | 48.4 | > 100 | 3.21 | > 100 | 57.8 | > 100 | > 100 | 66.7 | 48.3 | IC50 (JHH5): > 100 µM; IC50 (HEPG2): 30.8 µM; IC50 (NCl-H1648): > 100 µM |
| Cc1ccc(F)c(NC(=O)Nc2ccc(-c3cccc4c3c(N)nn4C(=O)CCCCCNC(=O)C[C@H](N)C(=O)N[C@@H](CCC(=O)N[C@@H](CCC(=O)N[C@@H](CCC(=O)N[C@@H](CCC(=O)N[C@@H](CCC(=O)N[C@@H](CCC(=O)N[C@@H](CCC(=O)N[C@@H](CCC(=O)N[C@@H](CCC(=O)O)C(=O)O)C(=O)O)C(=O)O)C(=O)O)C(=O)O)C(=O)O)C(=O)O)C(=O)O)C(=O)O)cc2)c1 [Compound 6] | > 100 | > 100 | > 100 | > 100 | > 100 | > 100 | > 100 | > 100 | > 100 | > 100 | 95.6 | 61 | > 100 | 4.94 | > 100 | 83.2 | > 100 | > 100 | 92.1 | 72.2 | IC50 (JHH5): > 100 µM; IC50 (HEPG2): 43.4 µM; IC50 (NCl-H1648): > 100 µM |
| Cc1ccc(F)c(NC(=O)Nc2ccc(-c3cccc4c3c(N)nn4C(=O)CCCCCCCCCCCNC(=O)C[C@H](N)C(=O)N[C@@H](CCC(=O)O)C(=O)O)cc2)c1 [Compound 7] | 40.7 | 32.1 | 63.6 | 30.2 | 29.2 | > 100 | 31.6 | 37.4 | > 100 | 97 | 13 | 21.1 | 22.5 | 0.096 | > 100 | 9.98 | 74.3 | 21.9 | 8.45 | 24.1 | IC50 (JHH5): > 100 µM; IC50 (HEPG2): 5.83 µM; IC50 (NCl-H1648): > 100 µM |
